Experiments:
[1] = tested on: single-stranded materials; experiment: Binding of drug to single strands; conditions: under the conditions used
Excerpt: (§1) When methyl phosphonate and synthetic RNA were used, the purities of the crude oligonucleotides were taken to be about 30%, based on the data sheet prepared by the supplier. (The remainder comprised primarily truncated sequences.) Appropriate excess amounts of these agents were included in the reactions to ensure helix formation. The corresponding sense or antisense oligonucleotides were maintained at 0.075 μmol-P in the reaction. […] Unpurified materials were used in these preliminary studies because of the relatively high cost of purified oligoribonucleotides. The majority of the contributions to A260 for these samples should be due to material that was not duplexed.

Poly(rA)-Oligo(dT) = experiment: Binding of drug to duplex (NACS column, A365/A260); conditions: for Final D/N (CC-1065/nucleotide) Bound to Duplex: Poly(rA)-Oligo(dT)
Protocol: (§2) Oligodeoxyribonucleotides were obtained by chemical synthesis through standard techniques on an automated synthesizer located in the Department of Veterinary Microbiology and Parasitology at Louisiana State University. Antisense MP and PS oligonucleotides were obtained from commercial sources, as was synthetic sense RNA. Poly(rA) was obtained from Sigma Chemical Co. CC-1065 was obtained from the Upjohn Company. Oligonucleotides (0.075 μmol-P each) were mixed in 0.36 ml 0.01 M Na cacodylate buffer, pH 7.2, with CC-1065 in dimethyl formamide (0.04 ml), or with dimethylformamide only. (Note that “μmol-P” denotes μmoles of phosphate; i.e., μmoles of nucleotide bases, rather than of oligonucleotides per se.) Incubations of complementary strands, with or without drug, were carried out at 37° C. for 4 hr. In the initial experiments, unbound drug was separated from nucleotide duplexes by ethanol precipitation. Equivalent results were obtained by trapping the oligonucleotides and CC-1065 on NACS-52 columns, and washing first with low-salt buffer and then with buffer containing 1M NaCl. Unbound CC-1065 was completely retained on the column. […] Samples prepared in this manner could be directly used for determination of binding of the drug to the nucleic acid (as measured by the A365/A260 ratio), with the extinction of CC-1065 absorbance at 365 nm taken as 48,000, and the extinction of the nucleic acid absorption at 260 nm based on its composition. Similar approaches were used with the drug U-71,184, with an assumed extinction of 32,000 at 365 nm.
as §1
(§3) Table 1 summarizes binding data obtained from incubations of CC-1065 with nucleotides at greater than stoichiometric levels; the levels used in these experiments were 1 drug molecule/10 nucleotide residues, which is equivalent to 4 drug molecules/20-mer duplex. […] There seemed to be no difference in drug binding between antisense oligonucleotides with a PO and those with a PS backbone. Again, the 5′-AGTTA-3′ sequence on the sense strand was presumably the primary target, and the 3′-AAGTA-5′ on the antisense probe was presumably the secondary target.

Oligo(dA)-Oligo(dT) = experiment: Binding of drug to duplex (NACS column, A365/A260); conditions: for Final D/N (CC-1065/nucleotide) Bound to Duplex: Oligo(dA)-Oligo(dT)
Protocol: as §2, §1, §3

poly(dA)-poly(dT) = conditions: reported, cited from earlier work
[2] = tested on: mRNA of a fragment of the env gene of EIAV; experiment: In vitro translation (wheat-germ extract, 35S-methionine); format: biochemical; conditions: 1.95 μg mRNA; antisense about 3 times mRNA sense; CC-1065 3 times antisense; scintillation spectrometry
Protocol: The in vitro translation studies were performed as follows. A fragment of DNA from the env gene of EIAV was transcribed with an SP-6 polymerase kit, and the resulting mRNA (approximately 600 bases long) was capped and isolated. The transcribed fragment included the target sequence 5′-[…]-3′ (SEQ ID NO. 3) (the CC-1065 binding site is underlined). The corresponding antisense sequence (using normal phosphodiester chemistry) was 5′-[…]-3′ (SEQ ID NO. 4). Translation was performed with a wheat-germ extract (Promega) in the presence of ^35S-methionine. The mRNA's were divided into approximately 2 μg aliquots, and treated according to the protocols listed for Table 3 below. Treated mRNA was separated from small molecules (such as DMSO and CC-1065) with a Sephadex 50-based NICK column. Translation was carried out in 25 μl of buffer containing the wheat germ translation system; the isolated mRNA; amino acids, including the labelled methionine; and RNAsin, an inhibitor of RNase. The proteins produced were divided into two aliquots. One aliquot was fractionated by SDS-PAGE, followed by autoradiography; and the other was analyzed by scintillation spectrometry. The concentrations of antisense oligomers and CC-1065 in the free-solution chemistries were relatively high compared to the sense target, to optimize duplex formation and drug binding. […] The following pairs were different at the P<0.05 level by Student's t-test (unpaired analysis): 1,5; 2,5; 3,4; 3,5; 4,5.

[3] = saturation, initial CC-1065/nucleotide 0.1, 37° C., 4 hr

## COc1c(O)c2c(c3cc(C(=O)N4CCc5c4c(O)c(OC)c4[nH]c(C(=O)N6CC7CC78C6=CC(=O)c6[nH]cc(C)c68)cc54)[nH]c13)CCN2C(N)=O (stereo not shown) [CC-1065]
[1]
  Binding to single-stranded materials: found not to bind to single-stranded materials
Poly(rA)-Oligo(dT); Initial D/N 0.01
  Final D/N (CC-1065/nucleotide) Bound to Duplex: 0.003 ± 0.002
Poly(rA)-Oligo(dT); Initial D/N 0.025
  Final D/N (CC-1065/nucleotide) Bound to Duplex: 0.008 ± 0.004
Poly(rA)-Oligo(dT); Initial D/N 0.04
  Final D/N (CC-1065/nucleotide) Bound to Duplex: 0.011 ± 0.004
Poly(rA)-Oligo(dT); Initial D/N 0.065
  Final D/N (CC-1065/nucleotide) Bound to Duplex: 0.022 ± 0.004
Poly(rA)-Oligo(dT); Initial D/N 0.10
  Final D/N (CC-1065/nucleotide) Bound to Duplex: 0.028 ± 0.001
Poly(rA)-Oligo(dT); [3]
  Approx. No. CC-1065 Bound/20 Base Pairs: ~1
Oligo(dA)-Oligo(dT); Initial D/N 0.01
  Final D/N (CC-1065/nucleotide) Bound to Duplex: 0.008 ± 0.001
Oligo(dA)-Oligo(dT); Initial D/N 0.025
  Final D/N (CC-1065/nucleotide) Bound to Duplex: 0.018 ± 0.0006
Oligo(dA)-Oligo(dT); Initial D/N 0.04
  Final D/N (CC-1065/nucleotide) Bound to Duplex: 0.028 ± 0.006
Oligo(dA)-Oligo(dT); Initial D/N 0.065
  Final D/N (CC-1065/nucleotide) Bound to Duplex: 0.058 ± 0.002
Oligo(dA)-Oligo(dT); Initial D/N 0.10
  Final D/N (CC-1065/nucleotide) Bound to Duplex: 0.063 ± 0.002
Oligo(dA)-Oligo(dT); [3]
  Approx. No. CC-1065 Bound/20 Base Pairs: ~2.5
poly(dA)-poly(dT); CC-1065 bound
  Tm: ~100 °C
poly(dA)-poly(dT); under the conditions of the experiment
  Increase in Tm: over 30 °C
[2]
  DPM S-35 ± standard error: 133.040 ± 13.227 DPM
